Test results: patent US20230312587A1, “PTERIDINONE COMPOUNDS AND USES THEREOF” (Vertex Pharmaceutical Incorporated, priority 2018, published 2023)

system: β-catenin-TCF-mediated reporter transcription activity in Colo 205 cells; test: Colo 205 reporter assay (TCF/LEF luciferase); format: cell-based; conditions: Homo sapiens, COLO 205, 5 h, Colo 205 TCF/LEF luciferase reporter, five hours after addition of compound; read-out: TCF reporter Colo205 IC50
Method in brief: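 Luciferase signal from a TCF/LEF-driven reporter, stably integrated in Colo 205 colon cancer cells, was measured 5 h after compound addition.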

Compound	IC50 [nM]
Cc1nc(NCc2cnn(C3CCC(c4ccc(F)cc4)C3)c2)nc2c1NC(=O)[C@H](C)N2C (stereo partly drawn) [Compound 137, (7S)-2-(((1-(3-(4-fluorophenyl)cyclopentyl)-1H-pyrazol-4-yl)methyl)amino)-4,7,8-trimethyl-7,8-dihydropteridin-6(5H)-one]	< 300
Cc1nc(NCc2cnn(Cc3ccc(F)c(F)c3)c2)nc2c1NC(=O)[C@H](C)N2C [Compound 140, (7S)-2-(((1-(3,4-difluorobenzyl)-1H-pyrazol-4-yl)methyl)amino)-4,7,8-trimethyl-7,8-dihydropteridin-6(5H)-one]	< 300
COc1ccc(Cn2cc(CNc3ncc4c(n3)N(C)[C@@H](C)C(=O)N4)cn2)cc1F [Compound 148, (7S)-2-(((1-(3-fluoro-4-methoxybenzyl)-1H-pyrazol-4-yl)methyl)amino)-7,8-dimethyl-7,8-dihydropteridin-6(5H)-one]	300 to 1000
Cc1nc(NCc2cnn([C@@H]3C[C@@H]3c3ccc(F)cc3)c2)nc2c1N(C)C(=O)[C@H](C)N2C [Compound 152, (7S)-2-(((1-((1R,2R)-2-(4-fluorophenyl)cyclopropyl)-1H-pyrazol-4-yl)methyl)amino)-4,5,7,8-tetramethyl-7,8-dihydropteridin-6(5H)-one]	< 300
Cc1nc(NCc2cnn([C@H]3C[C@H]3c3ccc(F)cc3)c2)nc2c1N(C)C(=O)[C@H](C)N2C [Compound 153, (7S)-2-(((1-((1S,2S)-2-(4-fluorophenyl)cyclopropyl)-1H-pyrazol-4-yl)methyl)amino)-4,5,7,8-tetramethyl-7,8-dihydropteridin-6(5H)-one]	< 300
CCc1noc(C)c1Cn1cc(CNc2nc(C)c3c(n2)N(C)[C@@H](C)C(=O)N3)cn1 [Compound 158, (7S)-2-(((1-((3-ethyl-5-methylisoxazol-4-yl)methyl)-1H-pyrazol-4-yl)methyl)amino)-4,7,8-trimethyl-7,8-dihydropteridin-6(5H)-one]	< 300
Cc1nc(NCc2cnn(Cc3cn(C)nc3C(F)(F)F)c2)nc2c1NC(=O)[C@H](C)N2C [Compound 159, (7S)-4,7,8-trimethyl-2-(((1-((1-methyl-3-(trifluoromethyl)-1H-pyrazol-4-yl)methyl)-1H-pyrazol-4-yl)methyl)amino)-7,8-dihydropteridin-6(5H)-one]	300 to 1000
Cc1cnc(C(F)(F)F)nc1-n1cc(CNc2nc(C)c3c(n2)N(C)[C@@H](C)C(=O)N3)cn1 [Compound 161, (7S)-4,7,8-trimethyl-2-(((1-(5-methyl-2-(trifluoromethyl)pyrimidin-4-yl)-1H-pyrazol-4-yl)methyl)amino)-7,8-dihydropteridin-6(5H)-one]	300 to 1000
Cc1cc(OC(C)(C)C)ncc1Cn1cc(CNc2nc(C)c3c(n2)N(C)[C@@H](C)C(=O)N3)cn1 [Compound 167, (7S)-2-(((1-((6-(tert-butoxy)-4-methylpyridin-3-yl)methyl)-1H-pyrazol-4-yl)methyl)amino)-4,7,8-trimethyl-7,8-dihydropteridin-6(5H)-one]	< 300
Cc1nc(NCc2cnn([C@H]3CCN(c4ccc(F)cc4)C3)c2)nc2c1NC(=O)[C@H](C)N2C [Compound 171, (7S)-2-(((1-((S)-1-(4-fluorophenyl)pyrrolidin-3-yl)-1H-pyrazol-4-yl)methyl)amino)-4,7,8-trimethyl-7,8-dihydropteridin-6(5H)-one]	< 300
Cc1nc(NCc2cnn([C@H](C)c3ccc(C(F)(F)F)nc3)c2)nc2c1NC(=O)[C@H](C)N2C [Compound 175, (7S)-4,7,8-Trimethyl-2-(((1-((R)-1-(6-(trifluoromethyl)pyridin-3-yl)ethyl)-1H-pyrazol-4-yl)methyl)amino)-7,8-dihydropteridin-6(5H)-one]	< 300
Cc1cc(Cn2cc(CNc3nc(C)c4c(n3)N(C)[C@@H](C)C(=O)N4)cn2)ccn1 [Compound 178, (7S)-4,7,8-trimethyl-2-(((1-((2-methylpyridin-4-yl)methyl)-1H-pyrazol-4-yl)methyl)amino)-7,8-dihydropteridin-6(5H)-one]	1000 to 5000

The next lines start with the values.

IC50 [nM]	Compound
< 300	C[C@H]1C(=O)Nc2cnc(NCc3cnn(Cc4ccc(F)c(F)c4)c3)nc2N1C [Compound 141, (7S)-2-(((1-(3,4-difluorobenzyl)-1H-pyrazol-4-yl)methyl)amino)-7,8-dimethyl-7,8-dihydropteridin-6(5H)-one]
< 300	COc1ccc(Cn2cc(CNc3nc(C)c4c(n3)N(C)[C@@H](C)C(=O)N4)cn2)cc1F [Compound 146, (7S)-2-(((1-(3-fluoro-4-methoxybenzyl)-1H-pyrazol-4-yl)methyl)amino)-4,7,8-trimethyl-7,8-dihydropteridin-6(5H)-one]
< 300	C[C@H]1C(=O)Nc2cnc(NCc3cnn(Cc4ccc(C(F)(F)F)cc4)c3)nc2N1C [Compound 147, (7S)-7,8-dimethyl-2-(((1-(4-(trifluoromethyl)benzyl)-1H-pyrazol-4-yl)methyl)amino)-7,8-dihydropteridin-6(5H)-one]
≥ 5000	Cc1nc(NCc2cnn(Cc3ncc(F)cn3)c2)nc2c1NC(=O)[C@H](C)N2C [Compound 162, (7S)-2-(((1-((5-fluoropyrimidin-2-yl)methyl)-1H-pyrazol-4-yl)methyl)amino)-4,7,8-trimethyl-7,8-dihydropteridin-6(5H)-one]
≥ 5000	C[C@H]1C(=O)Nc2cnc(NCc3cnn(Cc4ncc(F)cn4)c3)nc2N1C [Compound 165, (7S)-2-(((1-((5-fluoropyrimidin-2-yl)methyl)-1H-pyrazol-4-yl)methyl)amino)-7,8-dimethyl-7,8-dihydropteridin-6(5H)-one]
≥ 5000	Cc1ncc(Cn2cc(CNc3ncc4c(n3)N(C)[C@@H](C)C(=O)N4)cn2)cn1 [Compound 166, (7S)-7,8-dimethyl-2-(((1-((2-methylpyrimidin-5-yl)methyl)-1H-pyrazol-4-yl)methyl)amino)-7,8-dihydropteridin-6(5H)-one]
< 300	Cc1cc(OC(C)C)ncc1Cn1cc(CNc2nc(C)c3c(n2)N(C)[C@@H](C)C(=O)N3)cn1 [Compound 168, (7S)-2-(((1-((6-isopropoxy-4-methylpyridin-3-yl)methyl)-1H-pyrazol-4-yl)methyl)amino)-4,7,8-trimethyl-7,8-dihydropteridin-6(5H)-one]
< 300	Cc1nc(NCc2ccc(OC3CCN(c4ccc(F)cc4)C3)nc2)nc2c1NC(=O)[C@H](C)N2C (stereo partly drawn) [Compound 169, (7S)-2-(((6-((1-(4-fluorophenyl)pyrrolidin-3-yl)oxy)pyridin-3-yl)methyl)amino)-4,7,8-trimethyl-7,8-dihydropteridin-6(5H)-one]
300 to 1000	Cc1nc(NCc2cnn(Cc3ccc(C#N)nc3)c2)nc2c1NC(=O)[C@H](C)N2C [Compound 176, (7S)-5-((4-(((4,7,8-trimethyl-6-oxo-5,6,7,8-tetrahydropteridin-2-yl)amino)methyl)-1H-pyrazol-1-yl)methyl)picolinonitrile]
< 300	Cc1nc(NCc2cnn(Cc3ccc(C(F)(F)F)nc3)c2)nc2c1N(C)C(=O)[C@H](C)N2C [Compound 177, (7S)-4,5,7,8-tetramethyl-2-(((1-((6-(trifluoromethyl)pyridin-3-yl)methyl)-1H-pyrazol-4-yl)methyl)amino)-7,8-dihydropteridin-6(5H)-one]
